Measured values taken from ChEMBL document CHEMBL1151108, “Plant antimutagenic agents, 1. General bioassay and isolation procedures” (J Nat Prod, 1988).

Legend:
Salmonella typhimurium [1] = test: Toxicity in Salmonella Typhimurium TA98 at 150 ug/plate in presence of liver S9 fraction by Ames test; format: organism-based; conditions: salmonella enterica subsp. enterica serovar typhimurium
Salmonella typhimurium [2] = test: Toxicity in Salmonella Typhimurium TA98 at 300 ug/plate in presence of liver S9 fraction by Ames test; format: organism-based; conditions: salmonella enterica subsp. enterica serovar typhimurium

Question: Which Activity (Salmonella typhimurium [1]) does the source give for C=C1CCC[C@]2(C)C[C@H]3OC(=O)[C@@H](C)[C@H]3C[C@@H]12 [DIHYDROISOALANTOLACTONE] here?
Answer: Non-toxic

Question: What about the Activity (Salmonella typhimurium [2]) of the same molecule?
Answer: Non-toxic

Question: C=C1C(=O)O[C@@H]2C[C@@]3(C)CCCC(=C)[C@@H]3C[C@H]12 [ISOALANTOLACTONE] was tested. Which Activity (Salmonella typhimurium [1]) did it give?
Answer: Toxic

Question: And the Activity (Salmonella typhimurium [2])?
Answer: Toxic
